Measurements as given in publication PMC8234244, “Virtual Evolution of HVEM Segment for Checkpoint Inhibitor Discovery” (International Journal of Molecular Sciences, 2021).
Residues, ends and D or L forms follow the SMILES beside them.

T1: recombinant BTLA-Fc protein (B and T lymphocyte attenuator) (UniProt Q7Z6A9 31-137)
T1 construct: B and T lymphocyte attenuator (BTLA); source: recombinant
T1 sequence: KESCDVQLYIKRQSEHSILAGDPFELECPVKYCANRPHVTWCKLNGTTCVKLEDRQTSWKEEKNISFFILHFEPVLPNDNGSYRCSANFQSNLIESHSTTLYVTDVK

T2: BTLA-Fc (Homo sapiens, UniProt Q7Z6A9)
T2 construct: Fc
T2 sequence (Q7Z6A9 31-157 limits assumed): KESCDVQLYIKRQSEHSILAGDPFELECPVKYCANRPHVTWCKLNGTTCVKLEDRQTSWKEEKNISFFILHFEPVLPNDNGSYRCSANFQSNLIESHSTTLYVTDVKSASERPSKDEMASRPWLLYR


Biological target: T1, recombinant BTLA-Fc protein (B and T …)
Experiment: SPR; Biacore T100, CM5 chip; BTLA-Fc coupled by EDC/NHS; peptides injected at 30 µL/min in PBS with 2% DMSO; static (fast dissociation) or kinetic (slow dissociation) model
Conditions: both partners purified

Molecule | Kd [µM]
Ac-YRVKEACGELTGTVCEP-NH2 (cysteine pairing not given here) [P0-E1] | 9930
Ac-ESCPKCSPGYRVKEACGELTGTVCEP-NH2 (cysteine pairing not given here) [P0-E2] | 94.1
Ac-ESCPKCSPGYRVKPACGELTGTVCFP-NH2 (cysteine pairing not given here, HVEM residues 14-39 with the DP2 mutations E27P and E38F; also called extended DP2 (26 aa); source: synthetic peptide (SPPS, Fmoc; Jiangsu Shenlang Biotech)) [DP2-E2] | 0.00146
Ac-KPACGELTGTVCF-NH2 (cysteine pairing not given here, HVEM residues 26-38 with E27P and E38F; source: synthetic peptide (SPPS, Fmoc; Jiangsu Shenlang Biotech)) [DP2 E27P E38F] | 1750
Ac-YRVKPACGELTGTVCFP-NH2 (cysteine pairing not given here, HVEM residues 23-39 with the DP2 mutations E27P and E38F; also called extended DP2 (17 aa); source: synthetic peptide (SPPS, Fmoc; Jiangsu Shenlang Biotech)) [DP2-E1] | 3040

Tested on: BTLA/HVEM binding (BTLA-Fc coated, HVEM-biotin)
Experiment: Competitive ELISA, peptides against Biotin-HVEM for BTLA
Conditions: 1 mg/mL peptide, 12 h at room temperature; peptides with response value under 85% of the control were selected; absorbance 630 nm
Description: Though computational methods provided certain guidelines for picking the mutations, they are not 100% accurate since simplified models were used, like ignoring the possible conformation changes caused by mutations. Thus, the wet-lab examination is necessary to confirm their inhibition effects. The library containing predicted peptides was synthesized by solid phase peptide synthesis (SPPS) method with Fmoc strategy. We used competitive ELISA for the screen to ensure the positive peptides selectively binds in situ on the BTLA/HVEM interface. Biotin-HVEM was used as the signal reporter. Peptides with strong binding of BTLA will compete with Biotin-HVEM and result in lower signal. A primary screen was carried out by using 1 mg/mL of each peptide and those with response value under 85% of the control were selected for further characterization (Figure 2a).
96-well EIA/RIA plates (High Binding, Corning Incorporated) were coated with 350 ng/well of recombinant BTLA-Fc protein in PBS (50 µL/well), incubating at 37 °C overnight until the solutions evaporate completely. Methanol was added for protein fixation and the wells were blocked with 5% BSA in PBS (200 µL/well). The peptides in DMSO were diluted into 1 mg/mL in PBS (50 µL/well) and incubated 12 h at room temperature. Wells were washed six times with PBST (phosphate buffer saline with 0.1% Tween-20, pH 7.4). Different concentrations of recombinant HVEM-biotin protein (50 µL/well) was added and incubated for 2 h at room temperature. Wells were washed six times with PBS. Horseradish peroxidase (HRP) labeled Streptavidin was finally added at a 1/5000 dilution in PBS and incubated for 2 h at room temperature. 3, 3′, 5, 5′,-tetramethylbenzidine (TMB, Beyotime) was used for color development. The absorbance was read at 630 nm using Microplate Reader. Statistical analysis of the results was performed using GraphPad Prism 7 software.

Molecule | Inhibition in preliminary competitive ELISA screen
CC(=O)N[C@@H](CCCCN)C(=O)N1CCC[C@H]1C(=O)N[C@@H](C)C(=O)N[C@@H](CS)C(=O)NCC(=O)N[C@@H](CCC(=O)O)C(=O)N[C@@H](CC(C)C)C(=O)N[C@H](C(=O)NCC(=O)N[C@H](C(=O)N[C@H](C(=O)N[C@@H](CS)C(=O)N[C@@H](Cc1ccccc1)C(N)=O)C(C)C)[C@@H](C)O)[C@@H](C)O [DP2] (Ac-KPACGELTGTVCF-NH2) | showed inhibition
Ac-KEACGDLTGTVCE-NH2 [SP6, single mutant E31D of HVEM (26–38)] | showed inhibition
Ac-KEACGELPGTVCE-NH2 [SP7, single mutant T33P of HVEM (26–38)] | showed inhibition
Ac-KKACGELTGTVCF-NH2 [DP3, double mutant E27K E38F of HVEM (26–38)] | showed inhibition
Ac-KPACGELTGTVCE-NH2 [SP3, single mutant E27P of HVEM (26–38)] | showed inhibition

Same assay, conditions: competitive ELISA, dose dependent; 1 mg/mL peptide, HVEM-biotin titrated; qualitative comparison

Molecule | Inhibition of BTLA/HVEM binding, titration of peptide-BTLA with different concentrations of HVEM
CC(=O)N[C@@H](Cc1ccc(O)cc1)C(=O)N[C@@H](CCCNC(=N)N)C(=O)N[C@H](C(=O)N[C@@H](CCCCN)C(=O)N1CCC[C@H]1C(=O)N[C@@H](C)C(=O)N[C@@H](CS)C(=O)NCC(=O)N[C@@H](CCC(=O)O)C(=O)N[C@@H](CC(C)C)C(=O)N[C@H](C(=O)NCC(=O)N[C@H](C(=O)N[C@H](C(=O)N[C@@H](CS)C(=O)N[C@@H](Cc1ccccc1)C(=O)N1CCC[C@H]1C(N)=O)C(C)C)[C@@H](C)O)[C@@H](C)O)C(C)C [DP2-E1] (Ac-YRVKPACGELTGTVCFP-NH2) | higher affinity than the native ones
CC(=O)N[C@@H](CCC(=O)O)C(=O)N[C@@H](CO)C(=O)N[C@@H](CS)C(=O)N1CCC[C@H]1C(=O)N[C@@H](CCCCN)C(=O)N[C@@H](CS)C(=O)N[C@@H](CO)C(=O)N1CCC[C@H]1C(=O)NCC(=O)N[C@@H](Cc1ccc(O)cc1)C(=O)N[C@@H](CCCNC(=N)N)C(=O)N[C@H](C(=O)N[C@@H](CCCCN)C(=O)N1CCC[C@H]1C(=O)N[C@@H](C)C(=O)N[C@@H](CS)C(=O)NCC(=O)N[C@@H](CCC(=O)O)C(=O)N[C@@H](CC(C)C)C(=O)N[C@H](C(=O)NCC(=O)N[C@H](C(=O)N[C@H](C(=O)N[C@@H](CS)C(=O)N[C@@H](Cc1ccccc1)C(=O)N1CCC[C@H]1C(N)=O)C(C)C)[C@@H](C)O)[C@@H](C)O)C(C)C [DP2-E2] (Ac-ESCPKCSPGYRVKPACGELTGTVCFP-NH2) | higher affinity than the native ones
CC(=O)N[C@@H](CCCCN)C(=O)N1CCC[C@H]1C(=O)N[C@@H](C)C(=O)N[C@@H](CS)C(=O)NCC(=O)N[C@@H](CCC(=O)O)C(=O)N[C@@H](CC(C)C)C(=O)N[C@H](C(=O)NCC(=O)N[C@H](C(=O)N[C@H](C(=O)N[C@@H](CS)C(=O)N[C@@H](Cc1ccccc1)C(N)=O)C(C)C)[C@@H](C)O)[C@@H](C)O [DP2] (Ac-KPACGELTGTVCF-NH2) | showed the best inhibitory effects
CC(=O)N[C@@H](CCC(=O)O)C(=O)N[C@@H](CO)C(=O)N[C@@H](CS)C(=O)N1CCC[C@H]1C(=O)N[C@@H](CCCCN)C(=O)N[C@@H](CS)C(=O)N[C@@H](CO)C(=O)N1CCC[C@H]1C(=O)NCC(=O)N[C@@H](Cc1ccc(O)cc1)C(=O)N[C@@H](CCCNC(=N)N)C(=O)N[C@H](C(=O)N[C@@H](CCCCN)C(=O)N[C@@H](CCC(=O)O)C(=O)N[C@@H](C)C(=O)N[C@@H](CS)C(=O)NCC(=O)N[C@@H](CCC(=O)O)C(=O)N[C@@H](CC(C)C)C(=O)N[C@H](C(=O)NCC(=O)N[C@H](C(=O)N[C@H](C(=O)N[C@@H](CS)C(=O)N[C@@H](CCC(=O)O)C(=O)N1CCC[C@H]1C(N)=O)C(C)C)[C@@H](C)O)[C@@H](C)O)C(C)C [P0-E2, reference compound] (Ac-ESCPKCSPGYRVKEACGELTGTVCEP-NH2; N-terminus and C-terminus assumed) | more potency than P0
Ac-KEACGELTGTVCE-NH2 [P0, reference compound] | demonstrated little inhibition

Biological target: T2, BTLA-Fc
Experiment: Surface plasmon resonance (SPR), binding of peptides to BTLA
Conditions: qualitative statement in running text
Experimental: The SPR assay was conducted using Biacore T100 system with Sensor Chip CM5 (Cytiva, Marlborough, MA, USA). BTLA-Fc was conjugated to the chips with EDC/NHS coupling in NaAc buffer. The assay was performed in PBS buffer with 2% DMSO. The buffer calibration was conducted by mixing different volume of buffers with 1.5% or 2.8% DMSO. Various concentrations of the peptides were injected and flow through the chip at 30 µL/min. The signals were recorded and analyzed with either static (for fast dissociation) or kinetic (for slow dissociation) model.

Molecule | Binding to BTLA in words
CC(=O)N[C@@H](Cc1ccc(O)cc1)C(=O)N[C@@H](CCCNC(=N)N)C(=O)N[C@H](C(=O)N[C@@H](CCCCN)C(=O)N1CCC[C@H]1C(=O)N[C@@H](C)C(=O)N[C@@H](CS)C(=O)NCC(=O)N[C@@H](CCC(=O)O)C(=O)N[C@@H](CC(C)C)C(=O)N[C@H](C(=O)NCC(=O)N[C@H](C(=O)N[C@H](C(=O)N[C@@H](CS)C(=O)N[C@@H](Cc1ccccc1)C(=O)N1CCC[C@H]1C(N)=O)C(C)C)[C@@H](C)O)[C@@H](C)O)C(C)C [DP2-E1] (Ac-YRVKPACGELTGTVCFP-NH2) | binds slightly tighter than P0-E1, however weaker than DP2
Ac-KEACGELTGTVCE-NH2 [P0, reference compound] | can barely bind to BTLA

Same assay, conditions: value as stated in running text

Molecule | Kd [µM]
CC(=O)N[C@@H](Cc1ccc(O)cc1)C(=O)N[C@@H](CCCNC(=N)N)C(=O)N[C@H](C(=O)N[C@@H](CCCCN)C(=O)N[C@@H](CCC(=O)O)C(=O)N[C@@H](C)C(=O)N[C@@H](CS)C(=O)NCC(=O)N[C@@H](CCC(=O)O)C(=O)N[C@@H](CC(C)C)C(=O)N[C@H](C(=O)NCC(=O)N[C@H](C(=O)N[C@H](C(=O)N[C@@H](CS)C(=O)N[C@@H](CCC(=O)O)C(=O)N1CCC[C@H]1C(N)=O)C(C)C)[C@@H](C)O)[C@@H](C)O)C(C)C [P0-E1] (Ac-YRVKEACGELTGTVCEP-NH2) | 9000
